Measurements as given in patent publication USRE38257E1, “Piperdine derivatives and hypotensives containing the same” (Ajinomoto Co., Inc., priority 1988, dated 2003).

System: male spontaneously hypertensive rats
Test: Decrease in systolic blood pressure in spontaneously hypertensive rats after intravenous bolus injection, indirect (tail-cuff) method
Type: in vivo, rat
Settings: for Decrease in systolic blood pressure (mmHg) time after administration (hour) 0.5: 0.5 hour after administration; for Decrease in systolic blood pressure (mmHg) time after administration (hour) 4: 4 hours after administration
Description: As test animals, four male spontaneously hypertensive rats (weight 400 to 440 g) that were sufficiently adapted for feeding and in which hypertension was confirmed were used.
Physiological saline aqueous solution containing 2.5% Nicolle and 2.5% ethanol of sample was intravenously administered by bolus injection at a dose of 1 ml per 1 kg of body weight. Systolic blood pressure after administration was measured by the indirect (tail-cuff) method.

In the case of `O=C(C1CCc2ccccc2C1)N1CCC(=C2c3ccccc3C=Cc3ccccc32)CC1` (stereo not drawn) [Example 224, 4-(5H-Dibenzo[a,d]cyclohepten-5-ylidene)-1-(1,2,3,4-tetrahydro-2-naphthoyl)piperidine], the “Decrease in systolic blood pressure (mmHg) time after administration (hour) 0.5” value (“Decrease in systolic blood pressure … (hour) 0.5” for short) (dose 10 mg/kg i.v. bolus) is reported as −69 mmHg and the “Decrease in systolic blood pressure (mmHg) time after administration (hour) 4” value (shortened to “Decrease in systolic blood pressure … (hour) 4”) (dose 10 mg/kg i.v. bolus) is reported as −61 mmHg.
In the case of `C1=Cc2ccccc2C(=C2CCN(Cc3ccccn3)CC2)c2ccccc21.Cl.Cl` [Example 161, 4-(5H-Dibenzo[a,d]cyclohepten-5-ylidene)-1-(2-Picolyl)piperidine dihydrochloride], the “Decrease in systolic blood pressure … (hour) 0.5” value (dose 10 mg/kg i.v. bolus) is reported as −64 mmHg and the “Decrease in systolic blood pressure … (hour) 4” value (dose 10 mg/kg i.v. bolus) is reported as −12 mmHg.
`C1=Cc2ccccc2C(=C2CCN(Cc3cc4ccccc4[nH]3)CC2)c2ccccc21.Cl` [Example 385, 4-(5H-Dibenzo[a,d]cyclohepten-5-ylidene)-1-(2-indolylmethyl)piperidine hydrochloride] was tested, and the “Decrease in systolic blood pressure … (hour) 0.5” value (dose 10 mg/kg i.v. bolus) was −123 mmHg and the “Decrease in systolic blood pressure … (hour) 4” value (dose 10 mg/kg i.v. bolus) was −96 mmHg.
`COC(=O)c1cccc(C=CCN2CCC(=C3c4ccccc4C=Cc4ccccc43)CC2)c1.Cl` [Example 375, 4-(5H-Dibenzo[a,d]cyclohepten-5-ylidene)-1-(3-methoxycarbonylcinnamyl)piperidine hydrochloride] was tested, and the “Decrease in systolic blood pressure … (hour) 0.5” value (dose 1 mg/kg i.v. bolus) was −126 mmHg and the “Decrease in systolic blood pressure … (hour) 4” value (dose 1 mg/kg i.v. bolus) was −70 mmHg.
For `COc1cc(CN2CCC(=C3c4ccccc4C=Cc4ccccc43)CC2)cc(OC)c1OC` [Example 188, 4-(5H-Dibenzo[a,d]cyclohepten-5-ylidene)-1-(3,4,5-trimethoxybenzyl)piperidine], the “Decrease in systolic blood pressure … (hour) 0.5” value (dose 10 mg/kg i.v. bolus) was −94 mmHg and the “Decrease in systolic blood pressure … (hour) 4” value (dose 10 mg/kg i.v. bolus) was −12 mmHg.
`Cl.O=C1CCCC(CCCCN2CCC(=C3c4ccccc4C=Cc4ccccc43)CC2)C1` (stereo not drawn) [Example 301, 3-(4-(4-(5H-Dibenzo[a,d]cyclohepten-5-ylidene)-1-piperidinyl)-1-butyl)cyclohexanoe hydrochloride] was tested, and the “Decrease in systolic blood pressure … (hour) 0.5” value (dose 10 mg/kg i.v. bolus) was −100 mmHg and the “Decrease in systolic blood pressure … (hour) 4” value (dose 10 mg/kg i.v. bolus) was −12 mmHg.
`Cl.O=[N+]([O-])c1ccccc1CCCN1CCC(=C2c3ccccc3C=Cc3ccccc32)CC1` [Example 250, 3-(4-(5H-Dibenzo[a,d]cyclohepten-5-ylidene)-1-piperidinyl)-1-(2-nitrophenyl)propane hydrochloride] was tested, and the “Decrease in systolic blood pressure … (hour) 0.5” value (dose 10 mg/kg i.v. bolus) was −136 mmHg and the “Decrease in systolic blood pressure … (hour) 4” value (dose 10 mg/kg i.v. bolus) was −30 mmHg.
`COC(=O)C1(CCCCN2CCC(=C3c4ccccc4C=Cc4ccccc43)CC2)CCCCC1.Cl` [Example 219, 1-(4-(4-(5H-Dibenzo[a,d]cyclohepten-5-ylidene)-1-piperidinyl)-butyl)-1-methoxycarbonylcyclohexane hydrochloride] was tested, and the “Decrease in systolic blood pressure … (hour) 0.5” value (dose 10 mg/kg i.v. bolus) was −104 mmHg and the “Decrease in systolic blood pressure … (hour) 4” value (dose 10 mg/kg i.v. bolus) was −33 mmHg.
`Cl.Fc1c(F)c(F)c(CN2CCC(=C3c4ccccc4C=Cc4ccccc43)CC2)c(F)c1F` [Example 120, 4-(5H-Dibenzo[a,d]cyclohepten-5-ylidene)-1-pentafluorobenzylpiperidine hydrochloride] was tested, and the “Decrease in systolic blood pressure … (hour) 0.5” value (dose 3 mg/kg i.v. bolus) was −17 mmHg and the “Decrease in systolic blood pressure … (hour) 4” value (dose 3 mg/kg i.v. bolus) was −12 mmHg.
For “3-(4-(5H-Dibenzo[a,d]cyclohepten-5-ylidene)-1-piperidinyl)-1-(2-pyridyl)-1-propane hydrochloride [Example 284]”, the “Decrease in systolic blood pressure … (hour) 0.5” value (dose 3 mg/kg i.v. bolus) was −151 mmHg and the “Decrease in systolic blood pressure … (hour) 4” value (dose 3 mg/kg i.v. bolus) was −40 mmHg.
For `COc1cccc(C=CCN2CCC(=C3c4ccccc4C=Cc4ccccc43)CC2)c1[N+](=O)[O-].Cl` [Example 377], the “Decrease in systolic blood pressure … (hour) 0.5” value (dose 1 mg/kg i.v. bolus) was −151 mmHg and the “Decrease in systolic blood pressure … (hour) 4” value (dose 1 mg/kg i.v. bolus) was −73 mmHg.
`COc1cccc(C=CCN2CCC(=C3c4ccccc4C=Cc4ccccc43)CC2)c1OC.Cl` [Example 193, 4-(5H-Dibenzo[a,d]cyclohepten-5-ylidene)-1-(2-dimethoxycinnamyl)piperidine hydrochloride] was tested, and the “Decrease in systolic blood pressure … (hour) 0.5” value (dose 10 mg/kg i.v. bolus) was −124 mmHg and the “Decrease in systolic blood pressure … (hour) 4” value (dose 10 mg/kg i.v. bolus) was −59 mmHg.
